In patent US10781203B2, “Nontoxic compounds for the treatment and prevention of herpesvirus infections” (The Penn State Research Foundation, priority 2016, dated 2020):

Tests used:
[1] = system: HCMV-infected ARPE-19 cells (TB40); test: Spread of HCMV TB40-mCherry in ARPE-19 cells (viral foci area); format: cell-based, Human cytomegalovirus (HCMV); conditions: TB40-mCherry MOI=3, 10 μM, three weeks after infection
Experimental: (§1) FIG. 7A is a graph showing viral titers at 15 dpi of fibroblasts infected with various strains of HCMV (MOI=0.05) and treated with DMSO or Retro94 at 2 hpi. Media was changed and fresh Retro94 was added at 6 dpi. Bright field images representing CPE of above infections shown at right. FIG. 7B show HCMV-infected ARPE-19 cells (TB40, MOI=3) at 21 dpi treated with DMSO or Retro94 ([…]). Infected cells detected by monitoring mCherry (red) expressed by TB40 virus. Scale bars: 1 mm. The table below images show number of foci detected, average area and standard error of the mean. P<0.00001. […]
(§2) For MCMV growth curve analysis, samples were titrated on NIH 3T3 cells and titers were calculated using the 50% tissue culture infective dose method. Both HCMV virus stocks and samples for growth curves were titrated by serial dilutions on MRC5 cells and quantified by the immunological detection of immediate-early proteins as previously described (Britt W J. Human cytomegalovirus: propagation, quantification, and storage. Curr Protoc Microbiol. 2010; Chapter 14: Unit 14E.3). The numbers of stained nuclei were acquired on a Nikon Eclipse Ti Inverted microscope and fluorescent nuclei were quantified using the NIS Elements Software. […] The number and size of foci were quantified using NIS Elements software.

[2] = system: cytoplasmic viral assembly compartment (cVAC); test: cVAC morphology / localization of viral and cellular markers by fluorescence microscopy; format: cell-based, human
Experimental: Coverslips or chamber slides containing either uninfected or HCMV-infected cells were washed in phosphate-buffered saline (PBS) and fixed in 2% paraformaldehyde for 15 min at room temperature. Cells were blocked in PBS containing 10% human serum, 0.5% Tween-20, and 5% glycine. 0.1% Triton-X 100 was added for permeabilization. Primary and secondary antibodies as specified in the antibody section were diluted in blocking buffer. Nuclei were stained with DAPI prior to mounting with ProLong Diamond Antifade Mountant (ThermoScientific). For live-cell experiments using the pp28-mCherry virus, cells were grown on glass bottom microwell dishes (MatTek Corporation) and nuclei were stained with NucBlue Live Cell Stain ReadyProbes reagent (ThermoScientific). All images were acquired using a C2+ Confocal Microscope System (Nikon). Images were processed using NIS elements software. Images shown are volume renderings of Z-stacks.

[3] = system: Towne, TB40, Merlin and Toledo strains of HCMV; test: Viral titers of fibroblasts infected with various strains of HCMV; format: cell-based, Human cytomegalovirus (HCMV); conditions: all four strains; MOI=0.05; treated at 2 hpi; 15 dpi
Experimental: as §1, §2

cells = test: Cell viability after extended treatment (trypan blue, bright field); format: cell-based
Description: FIG. 3A is a growth curve analysis of HCMV (MOI=3) in untreated (WT), vehicle treated (DMSO) or Retro94-treated cells. Samples were harvested at 24, 48, 72, 96, 120 and 144 hpi. […] Nuclei labeled with DAPI (blue). Scale bars: 10 μm. FIG. 3C is a growth curve analysis of HCMV (MOI=0.05) in DMSO control (DMSO) or Retro94-treated cells. Samples were harvested at 3, 6, 9, 12 and 15 dpi. Asterisks indicate change of media with fresh Retro94. […] Bright field images of cell monolayers at 4 days post treatment are shown below graph. Brefeldin A was included as a positive control for cell death. Values in FIGS. 3A and 3C are from one representative experiment.
Normal human dermal fibroblasts, HDFs (Cell Applications Inc. 106-05N), and normal human lung fibroblasts, MRC-5 cells (ATCC CCL-171) were maintained in Dulbecco's modified Eagle's medium (DMEM) (Lonza). Human retinal pigmented epithelial cells (ARPE-19), maintained in DMEM/Ham's F12 (1:1 mix) (Lonza), human embryonic lung fibroblasts (HEL) and mouse embryonic fibroblasts (NIH 3T3), maintained in DMEM (Lonza) were obtained (Spector D J, Yetming K. Virology. 2010; 407(2):171-7; Spector D J. Virology. 2015, 476:345-54). All media was supplemented with 10% fetal bovine serum, 100 U/ml penicillin and 100 µg/ml streptomycin, and 2 mM GlutaMAX (Gibco). Cells were maintained at 37° C. with 5% CO2. […]

[4] = system: cytoplasmic viral assembly compartment (cVAC); test: Electron microscopy of HCMV-infected cells; format: cell-based, human; conditions: MOI=3; 96 hpi; treated at 2 hpi
Experimental: Cells were seeded on 60 mm Permanox tissue culture dishes (Nalge Nunc International). Infections were done at an MOI of 3 for 96 hours. Cells were first washed with PBS 3× followed by fixation for 1 hour at 4° C. in fixation buffer (0.5% [vol/vol] glutaraldehyde, 0.04% [wt/vol] paraformaldehyde, 0.1 M sodium cacodylate). Cells were then processed for EM by the Microscopy Imaging Facility (Pennsylvania State University College of Medicine). Briefly, the fixed samples were washed three times with 0.1 M sodium cacodylate, followed by postfixation in 1% osmium −1.5% potassium ferrocyanide overnight at 4° C. Samples were then washed 3 times in 0.1 M sodium cacodylate, dehydrated with ethanol, and embedded in Epon 812 for staining and sectioning. Images were acquired using a JEOL JEM-1400 Digital Capture transmission electron microscope.

Cc1nc(-c2ccc(C3N(C)c4ccccc4C(=O)N3c3ccccc3)s2)cs1 (centres unmarked) [Retro94, 1-Methyl-2-(5-(2-methylthiazol-4-yl)thiophen-2-yl)-3phenyl-2,3-dihydroquinazolin-4(1H)-one]
area of viral centers, DMSO treated versus compound treated cells [1]: more than twice
localization of viral proteins pp28, pp150 and glycoprotein B ([2]; 96 hpi, 10 μM): dispersed throughout the cytoplasm and were no longer present in the cVAC
localization of GS27 and GS28 ([2]; MOI=3, 96 hpi): mostly remained in a perinuclear localization
localization of markers of Golgi (GM130), TGN (p230) and endosomes (EEA1) ([2]; MOI=3, 96 hpi): retained their perinuclear localization
normal cVAC morphology ([2]; MOI=3, 96 hpi): did not form
cVAC as detected by pp28-mCherry ([2]; added at 2 or 24 hpi, imaged at 96 hpi): no area representing a cVAC was detected
pp28 localization (pp28-mCherry) ([2]; added at 48 hpi, imaged at 96 hpi): largely dispersed throughout the cell
perinuclear pp28 regions reminiscent of the cVAC ([2]; added at 72 hpi, imaged at 96 hpi): more prominent
viral titers lower in the presence of compound [3]: two to three
effect on cell viability or cell morphology (cells): no effect
capsids in perinuclear region (EM) [4]: largely devoid of capsids at all stages of maturation
